How the values were obtained:
human DβH = biological target: T1, human DβH (Homo sapiens, UniProt P09172); experiment: DβH activity in SK-N-SH cells (β-hydroxylation of dopamine to noradrenaline); assay type: cell-based; conditions: for DβH activity, Mean ± SEM, % of control: compound 5 μM; for inhibition of DβH activity (in words): as listed in Table 1, 5 μM; for IC50 against human DβH activity (in words): concentration-dependent decrease in β-hydroxylation of dopamine
T1 construct: endogenous in cells; host or cells: SK-N-SH cells
T1 sequence (P09172 1-617): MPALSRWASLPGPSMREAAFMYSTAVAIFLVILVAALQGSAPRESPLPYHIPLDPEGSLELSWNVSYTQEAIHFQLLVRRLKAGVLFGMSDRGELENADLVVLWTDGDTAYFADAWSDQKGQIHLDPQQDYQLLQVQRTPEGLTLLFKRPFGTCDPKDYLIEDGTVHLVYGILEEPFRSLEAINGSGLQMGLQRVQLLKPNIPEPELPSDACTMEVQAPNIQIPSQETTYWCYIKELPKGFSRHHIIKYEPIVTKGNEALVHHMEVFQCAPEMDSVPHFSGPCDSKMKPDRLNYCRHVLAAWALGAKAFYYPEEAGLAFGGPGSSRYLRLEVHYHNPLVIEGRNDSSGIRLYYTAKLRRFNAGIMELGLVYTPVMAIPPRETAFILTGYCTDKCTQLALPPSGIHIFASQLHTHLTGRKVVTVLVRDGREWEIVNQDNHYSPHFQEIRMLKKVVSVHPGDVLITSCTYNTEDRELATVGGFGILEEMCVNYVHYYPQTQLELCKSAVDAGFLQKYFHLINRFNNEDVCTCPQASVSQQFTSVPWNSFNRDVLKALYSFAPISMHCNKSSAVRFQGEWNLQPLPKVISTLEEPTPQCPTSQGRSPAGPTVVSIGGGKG

DβH [1] = biological target: T2, DβH (Mus musculus, UniProt Q64237); experiment: Noradrenaline tissue levels in mouse heart and brain after oral administration; assay type: in vivo
T2 construct: noradrenaline levels in the mouse left ventricle and brain parietal cortex 9 h after oral administration; from tissue; host or cells: mouse left ventricle and brain parietal cortex (in vivo)
T2 sequence (Q64237 1-622): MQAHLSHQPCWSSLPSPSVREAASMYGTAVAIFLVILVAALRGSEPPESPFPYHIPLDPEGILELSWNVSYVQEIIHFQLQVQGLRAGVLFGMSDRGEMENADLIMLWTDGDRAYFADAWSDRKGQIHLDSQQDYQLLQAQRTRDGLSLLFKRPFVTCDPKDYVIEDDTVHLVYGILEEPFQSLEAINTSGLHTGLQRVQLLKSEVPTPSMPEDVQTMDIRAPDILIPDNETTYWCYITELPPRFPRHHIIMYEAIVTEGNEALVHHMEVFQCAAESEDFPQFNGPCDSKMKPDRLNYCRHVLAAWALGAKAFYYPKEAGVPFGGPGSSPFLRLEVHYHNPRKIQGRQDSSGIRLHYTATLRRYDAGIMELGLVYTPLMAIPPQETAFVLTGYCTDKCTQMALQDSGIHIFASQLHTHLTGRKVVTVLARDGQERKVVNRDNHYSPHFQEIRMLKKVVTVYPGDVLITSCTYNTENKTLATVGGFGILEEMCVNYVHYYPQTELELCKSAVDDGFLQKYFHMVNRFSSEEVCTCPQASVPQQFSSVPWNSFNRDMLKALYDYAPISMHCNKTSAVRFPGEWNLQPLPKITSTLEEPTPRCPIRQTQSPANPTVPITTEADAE
Procedure: FIG. 1 is a graph showing the time-dependent decrease of noradrenaline levels in the left ventricle of mice treated orally with 100 mg/kg of 4 or nepicastat 1. Symbols are means of 5 determinations per group; vertical lines indicate S.E.M.
FIG. 2 is two graphs showing noradrenaline levels in the mouse left ventricle and brain parietal cortex 9 h after oral administration of 4 or nepicastat 1. Symbols are means of 5 determinations per group; vertical lines indicate S.E.M.
Time of maximum effect (Tmax) for noradrenaline tissue reduction by both 4 and 1 appears to be at 9 h post-dose (FIG. 1). Thereafter, noradrenaline tissue levels recover, reaching 50% recovery of initial tissue levels at 24 h.
For both 4 and 1, the maximal inhibitory effect was attained at a dose of 100 mg/kg.

DβH [2] = biological target: T3, DβH (Rattus norvegicus, UniProt Q05754); experiment: Noradrenaline tissue levels in rat heart and brain after oral administration; assay type: in vivo
T3 construct: noradrenaline levels in the rat heart (left atrium and left ventricle) and brain (frontal and parietal cortex); from tissue; host or cells: rat heart (left atrium, left ventricle) and brain (frontal and parietal cortex), in vivo
T3 sequence (Q05754 1-620): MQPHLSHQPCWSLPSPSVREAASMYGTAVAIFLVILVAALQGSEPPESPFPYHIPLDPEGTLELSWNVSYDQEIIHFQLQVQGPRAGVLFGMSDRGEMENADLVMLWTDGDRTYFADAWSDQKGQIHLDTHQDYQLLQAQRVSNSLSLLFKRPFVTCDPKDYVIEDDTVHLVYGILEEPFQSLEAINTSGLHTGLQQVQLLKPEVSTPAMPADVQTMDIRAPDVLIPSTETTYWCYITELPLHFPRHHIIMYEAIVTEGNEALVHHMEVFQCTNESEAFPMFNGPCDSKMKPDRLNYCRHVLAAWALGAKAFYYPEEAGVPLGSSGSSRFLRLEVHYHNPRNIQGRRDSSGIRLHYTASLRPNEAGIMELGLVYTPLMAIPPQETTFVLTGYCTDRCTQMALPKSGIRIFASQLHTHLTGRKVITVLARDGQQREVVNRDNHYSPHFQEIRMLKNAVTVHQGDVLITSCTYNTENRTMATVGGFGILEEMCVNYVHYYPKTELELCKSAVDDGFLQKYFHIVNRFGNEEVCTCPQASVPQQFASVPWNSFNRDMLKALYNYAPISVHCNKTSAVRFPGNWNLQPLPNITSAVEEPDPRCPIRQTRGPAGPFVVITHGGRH
Procedure: FIG. 3 is four graphs showing noradrenaline levels in the rat heart (left atrium and left ventricle) and brain (frontal and parietal cortex) 9 h after the oral administration of 4 or nepicastat 1. Columns are means of 5 determinations per group; vertical lines indicated S.E.M.

[3] = mouse, 9 h after oral administration

DβH activity, Mean ± SEM, % of control (human DβH)	inhibition of DβH activity (in words) (human DβH)	SMILES	also measured
99.4 ± 2.8 % of control		COc1ccc2c(c1)C[C@@H](n1c(CCN)c[nH]c1=S)CS2.Cl (racemic) [Compound 30, (R,S)-5-(2-aminoethyl)-1-(6-methoxythiochroman-3-yl)-1,3-dihydroimidazole-2-thione hydrochloride]	
27.3 ± 0.4 % of control		Cl.NCCc1c[nH]c(=S)n1[C@H]1CSc2ccc(O)cc2C1 (racemic) [Compound 31, (R,S)-5-(2-aminoethyl)-1-(6-hydroxythiochroman-3-yl)-1,3-dihydroimidazole-2-thione hydrochloride]	
0.0 ± 0.6 % of control	markedly inhibit	Cl.NCCc1c[nH]c(=S)n1[C@H]1COc2ccc(O)cc2C1 [Compound 16, (R)-5-(2-aminoethyl)-1-(6-hydroxychroman-3-yl)-1,3-dihydroimidazole-2-thione hydrochloride]	
	markedly inhibit	COc1cccc2c1OC[C@H](n1c(CCN)c[nH]c1=S)C2.Cl [Compound 19, (R)-5-(2-aminoethyl)-1-(8-methoxychroman-3-yl)-1,3-dihydroimidazole-2-thione hydrochloride]	
0.0 ± 1.9 % of control	markedly inhibit	Cl.NCc1c[nH]c(=S)n1[C@H]1COc2ccccc2C1 [Compound 24, (R)-5-aminomethyl-1-chroman-3-yl-1,3-dihydroimidazole-2-thione hydrochloride]	
	markedly inhibit	Cl.Oc1ccc2c(c1)C[C@@H](n1c(CCNCc3ccccc3)c[nH]c1=S)CO2 [Compound 26, (R)-5-(2-Benzylaminoethyl)-1-(6-hydroxychroman-3-yl)-1,3-dihydroimidazole-2-thione hydrochloride]	
	markedly inhibit	CNCCc1c[nH]c(=S)n1[C@H]1COc2c(F)cc(F)cc2C1.Cl [Compound 28, (R)-1-(6,8-Difluorochroman-3-yl)-5-(2-methylaminoethyl)-1,3-dihydroimidazole-2-thione hydrochloride]	
	markedly inhibit	CNCCc1c[nH]c(=S)n1[C@H]1COc2ccccc2C1.Cl [Compound 29, (R)-1-Chroman-3-yl-5-(2-methylaminoethyl)-1,3-dihydroimidazole-2-thione hydrochloride]	

More lines, now with the values behind:

SMILES	DβH activity, Mean ± SEM, % of control (human DβH)	inhibition of DβH activity (in words) (human DβH)	also measured
Cl.NCCc1c[nH]c(=S)n1[C@H]1CCc2c(F)cc(F)cc2C1 [Compound 2, (S)-5-(2-aminoethyl)-1-(5,7-difluoro-1,2,3,4-tetrahydronaphthalen-2-yl)-1,3-dihydroimidazole-2-thione hydrochloride]		markedly inhibit	IC50 against human DβH activity (in words) (human DβH): low nM range
Cl.NCc1c[nH]c(=S)n1[C@H]1COc2c(F)cc(F)cc2C1 [Compound 3, (R)-5-aminomethyl-1-(6,8-difluorochroman-3-yl)-1,3-dihydroimidazole-2-thione hydrochloride]		markedly inhibit	IC50 against human DβH activity (in words) (human DβH): low nM range
Cl.NCCc1c[nH]c(=S)n1[C@H]1COc2c(F)cc(F)cc2C1 [Compound 4, (R)-5-(2-aminoethyl)-1-(6,8-difluorochroman-3-yl)-1,3-dihydroimidazole-2-thione hydrochloride]		markedly inhibit	Time of maximum effect (Tmax) for noradrenaline tissue reduction (DβH [1]; mouse heart (left ventricle), 100 mg/kg oral): 9 h; recovery of initial noradrenaline tissue levels (DβH [1]; mouse heart, 100 mg/kg, at 24 h): 50%; duration of action (in words) (DβH [1]; mouse heart, time course at 100 mg/kg): long acting; dose at which maximal inhibitory effect was attained (DβH [1]; mouse left ventricle noradrenaline, 9 h after administration): 100 mg/kg; effect on noradrenaline levels in left ventricle (DβH [1]; [3]): reduced noradrenaline levels in a dose-dependent manner; effect on noradrenaline tissue levels in brain parietal cortex (DβH [1]; [3]): failed to affect; site of DβH inhibition, periphery versus brain (conclusion) (DβH [2]; concluded from mouse and rat studies): exclusively in the periphery, being devoid of inhibitory effects in the brain; dose dependence of effect upon noradrenaline (DβH [2]; rat (data not shown)): dependent on the dose administered; time of maximum effect upon noradrenaline (DβH [2]; rat (data not shown)): 9 h; inhibitory effect upon noradrenaline levels in left atrium and left ventricle (DβH [2]; rat, 100 mg/kg oral, 9 h, compared with 1 (100 mg/kg)): more pronounced than those elicited by 1; effect on noradrenaline tissue levels in brain parietal cortex and brain frontal cortex (DβH [2]; rat, 9 h after oral administration): failed to affect; IC50 against human DβH activity (in words) (human DβH): low nM range
Cl.NCCCc1c[nH]c(=S)n1[C@H]1CCc2c(F)cc(F)cc2C1 [Compound 5, (S)-5-(3-aminopropyl)-1-(5,7-difluoro-1,2,3,4-tetrahydronaphthalen-2-yl)-1,3-dihydroimidazole-2-thione hydrochloride]		markedly inhibit	
Cl.NCCc1c[nH]c(=S)n1[C@H]1COc2c(F)cccc2C1 [Compound 6, (R)-5-(2-aminoethyl)-1-(8-fluorochroman-3-yl)-1,3-dihydroimidazole-2-thione hydrochloride]		markedly inhibit	
Cl.NCCc1c[nH]c(=S)n1[C@H]1COc2ccc(F)cc2C1 [Compound 7, (R)-5-(2-aminoethyl)-1-(6-fluorochroman-3-yl)-1,3-dihydroimidazole-2-thione hydrochloride]	8.0 ± 0.1 % of control	markedly inhibit	
Cl.NCCc1c[nH]c(=S)n1[C@H]1COc2cc(F)c(F)cc2C1 [Compound 8, (R)-5-(2-aminoethyl)-1-(6,7-difluorochroman-3-yl)-1,3-dihydroimidazole-2-thione hydrochloride]		markedly inhibit	
Cl.NCCc1c[nH]c(=S)n1[C@H]1COc2c(cc(F)c(F)c2F)C1 [Compound 10, (R)-5-(2-aminoethyl)-1-(6,7,8-trifluorochroman-3-yl)-1,3-dihydroimidazole-2-thione hydrochloride]		markedly inhibit	
Cl.NCCc1c[nH]c(=S)n1[C@H]1COc2ccccc2C1 [Compound 12, (R)-5-(2-aminoethyl)-1-chroman-3-yl-1,3-dihydroimidazole-2-thione hydrochloride]	3.0 ± 0.5 % of control	markedly inhibit	
